In PubChem BioAssay AID179 (DTP/NCI, 2004):
Calls of active or inactive are those of the source.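 The calls were made as follows: active = compounds giving half or more protection of infected cells from virus-caused growth loss, again on retest; inactive = the rest.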

System: CEM cells HIV-1 protection, formazan growth assay
Assay: NCI AIDS Antiviral Assay
Settings: for IC50: measured here: growth of uninfected CEM cells
Outline: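 Category rules: moderately active means at least 50% protection on retest, and confirmed active means 100% protection reproducibly. The underlying data came from a formazan growth assay in HIV-1-infected CEM cells.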

Compound: CCCCCCn1c(SC)nc(COC(=O)NC)c1COC(=O)NC
- EC50: > 200 µM
- IC50: 35.5 µM

Compound: Cc1nc(N)nc(N)c1N1CCN(c2ccc([N+](=O)[O-])cc2)CC1
- EC50: > 100 µM
- IC50: 27.5 µM

Compound: CCOC1=NC(=O)CC(c2ccccc2)S1 (stereo not drawn)
- outcome: inactive

Compound: O=C1C=C(C23CC4CC(CC(C4)C2)C3)N2CCCc3cccc(c32)N1
- EC50: > 100 µM
- IC50: > 100 µM

Compound: Cc1ccc(OCC2OC(n3cnc4nc(Cl)nc(Cl)c43)CC2Oc2ccc(C)cc2)cc1 (stereo not drawn)
- EC50: > 200 µM
- IC50: 1.48 µM

Compound: Cc1cccc(C)c1NC(=O)C(=O)C(C(=O)c1ccccc1-c1ccccc1)C1OC(=O)c2ccccc21 (stereo not drawn)
- EC50: > 135 µM
- IC50: 24.5 µM

Compound: COC(=O)[C@H](Cc1ccccc1)NC(=O)N(CCNC(=O)OC(C)(C)C)c1ccccc1
- EC50: > 200 µM
- IC50: 102 µM

Compound: O=S1(=O)CC2(N3CCOCC3)CCCCC21 (stereo not drawn)
- EC50: > 1020 µM
- IC50: > 1020 µM

Compound: CC1(C)COC1(c1ccccc1)c1cccnc1 (stereo not drawn)
- EC50: > 200 µM
- IC50: 148 µM

Compound: CC(C)(C)OC(=O)N1Cc2cc(O)ccc2C[C@H]1C(=O)O
- EC50: > 200 µM
- IC50: > 200 µM

Compound: Cc1ccc(S(=O)(=O)c2ccc(O)cc2)cc1
- EC50: > 200 µM
- IC50: 129 µM

Compound: COc1cc2c3c(c1)nc(C)n3C(=O)CS2
- EC50: > 200 µM
- IC50: > 200 µM

Compound: COC(=O)c1c(C)c(=O)n(C)c(=O)n1C
- outcome: inactive

Compound: COc1cccc(/C=N/N=C(/N)NO)c1
- outcome: inactive

Compound: COC1/C=C/OC2(C)Oc3c(C)c(O)c4c(O)c(cc(OCC(=O)N5C(C)CCC5C)c4c3C2=O)NC(=O)/C(C)=C/C=C/C(C)C(O)C(C)C(O)C(C)C(OC(C)=O)C1C (stereo not drawn)
- EC50: > 200 µM
- IC50: 43.7 µM

Compound: O=C1/C(=C/c2ccc(Cl)cc2)COc2ccc(Br)cc21
- EC50: > 14.8 µM
- IC50: > 14.8 µM

Compound: C=CC[C@@H](N)C(=O)N(C)[C@@H](C)[C@@H](O)c1ccccc1
- EC50: > 200 µM
- IC50: > 200 µM

Compound: CCCC(=O)C(CC)/C(CCC(=O)N(Cc1ccccc1)Cc1ccccc1)=N/NC(=O)C[N+](C)(C)C (stereo not drawn)
- outcome: inactive

Compound: CN(C)CCCNC(=O)c1c(O)c2ccccc2n(C)c1=O
- EC50: > 200 µM
- IC50: 79.4 µM

Compound: CCCCCCCCOC(CO)CO
- EC50: > 251 µM
- IC50: > 251 µM

Compound: CC(C)=C1CC(C)(C)N=C1CCC1=NC(C)(C)CC1=C(C)C
- EC50: > 50.1 µM
- IC50: 28.2 µM

Compound: COc1cc(/C=C/C(=O)c2ccccc2)cc(OC)c1OC
- EC50: > 87.1 µM
- IC50: 20.4 µM

Compound: C=CC(C)(C)c1[nH]cnc1/C=C1\NC(=O)[C@H](C(C)C)NC1=O
- EC50: > 200 µM
- IC50: 2.4 µM

Compound: O=C(O)CCC(=O)N1c2ccccc2CC1c1c[nH]c2ccccc12 (stereo not drawn)
- EC50: > 741 µM
- IC50: 158 µM

Compound: NC(=O)Cc1nc2c(N)ncnc2n1C1OC(CO)C(O)C1O (stereo not drawn)
- EC50: > 200 µM
- IC50: > 200 µM

Compound: CSc1nnc(COc2ccc(Cl)cc2)o1
- EC50: > 263 µM
- IC50: > 263 µM

Compound: CC(=O)c1ccc(C(O)C(CO)NC(=O)C(Cl)Cl)cc1 (stereo not drawn)
- EC50: > 200 µM
- IC50: > 200 µM

Compound: CCCCCCCCCCCC1=c2o[nH]c2=C(c2ccccn2)C(=O)C1=O
- EC50: > 19.5 µM
- IC50: > 19.5 µM

Compound: Cc1ccccc1Nc1nc2c(s1)C(=O)c1ccccc1C2=O
- outcome: inactive

Compound: Cc1ccc(S(=O)(=O)N2CC3(CN(S(=O)(=O)c4ccc(C)cc4)CC4(C2)OCCO4)OCCO3)cc1
- EC50: > 200 µM
- IC50: 85.1 µM

Compound: CN1C(=O)N(C)C2(CCN(CCCCCCF)CC2)C1=O
- EC50: > 200 µM
- IC50: > 200 µM

Compound: Cc1nnc(N2C(=O)C(=Cc3ccc(Cl)cc3)N=C2c2ccc(Cl)cc2)nc1/C=C\c1ccc(N(C)C)cc1
- EC50: 47.9 µM
- IC50: 110 µM

Compound: Cc1ccc(NC(=O)/C(=N/NC(=O)CC#N)C2C(=O)N(c3ccccc3)N=C2N)cc1C (stereo not drawn)
- EC50: > 219 µM
- IC50: 37.2 µM

Compound: Cc1ccccc1NC(=O)C(=O)C(C1OC(=O)c2ccccc21)[N+](=O)[O-] (stereo not drawn)
- EC50: > 708 µM
- IC50: 339 µM
